# Experimental data taken from patent publication US10653698B2, “Methods of improving myocardial performance in Fontan patients using udenafil compositions” (priority 2014, dated 2020).
# Experiments:
# [1] = test system: adolescents with single ventricle physiology after Fontan palliation; test: Vascular function testing (EndoPAT pulse amplitude tonometry, lnRHI and other EndoPAT indices); format: in vivo, human; settings: for Natural Log of Reactive Hyperemia Index, Baseline measurement: day 1; for Natural Log of Reactive Hyperemia Index, Follow-up measurement: post-medication, day 5
# Description: Pulse amplitude tonometry (PAT), a FDA-approved method for assessing vascular function, is increasingly being used as an alternative measure of endothelium-dependent dilation in response to reactive hyperemia and flow-mediated dilation (FMD). The PAT device records digital pulse wave amplitude (PWA) using fingertip plethysmography. PWA can be measured continuously during three phases: a quiet baseline period, 5-min forearm occlusion, and reactive hyperemia following cuff release. Unlike FMD, PAT testing is not dependent upon a highly skilled technician and post-test analysis is largely automated. Most importantly, at least one longitudinal study has shown that PAT measures of endothelial function predict CVD events over a 6-year follow-up period. These significant advantages may make PAT testing suitable for clinical practice if prognostic significance and reliability can be verified.
# The primary outcome of vascular function was determined according to an endothelial pulse amplitude tonometry (PAT) index as determined by the EndoPAT® device (Itamar Medical, Caesarea, Israel).
# Table 16 summarizes the results for the key outcome from the vascular function testing—natural log of Reactive Hyperemia Index (lnRHI) by treatment group. Out of the 30 subjects enrolled in the treatment arms of the trial, 27 subjects had paired measurements with an acceptable quality (with QC score equal to 3 (the best) or 2). The structure of the table is similar to the one for exercise variables.
# Table 17 reports change scores only for secondary EndoPAT outcomes (RHI, Framingham RHI etc; top panel) and other EndoPAT indices.
# [2] = cited from earlier work
# [3] = test system: ED patients; settings: 50 mg or 75 mg once daily for 12 wk; cited from earlier work
smiles,measurement,setting,value
CCCOc1ccc(S(=O)(=O)NCCC2CCCN2C)cc1-c1nc2c(CCC)nn(C)c2c(=O)[nH]1 (stereo not drawn) [udenafil],"Natural Log of Reactive Hyperemia Index, Difference, FU − BL",[1]; 37.5 mg daily,0.03 ± 0.47
same,"AUC2max_o: Area under the curve to Max-Occlusion (ratio to baseline), FU − BL","[1]; 37.5 mg daily, N 6",−0.23 ± 2.74
same,"AUC2max_oc: Area under the curve to Max-Occlusion/Control, FU − BL","[1]; 37.5 mg daily, N 6",−0.93 ± 4.37
same,"AUCall_o: Area under the curve all-Occlusion (ratio to baseline), FU − BL","[1]; 37.5 mg daily, N 6",−0.01 ± 2.73
same,"AUCall_oc: Area under the curve all-Occlusion/Control, FU − BL","[1]; 37.5 mg daily, N 6",−1.34 ± 6.42
same,"Avg2Max_o: average upto max-Occlusion (ratio to baseline), FU − BL","[1]; 37.5 mg daily, N 6",−0.12 ± 0.28
same,"Avg2Max_oc: average up to max-Occlusion/Control, FU − BL","[1]; 37.5 mg daily, N 6",−0.35 ± 1.01
same,"Avgall_o: average all-Occlusion (ratio to baseline), FU − BL","[1]; 37.5 mg daily, N 6",0.02 ± 0.27
same,"Avgall_oc: average all -Occlusion/Control, FU − BL","[1]; 37.5 mg daily, N 6",−0.10 ± 0.66
same,"Framingham RHI, FU − BL","[1]; 37.5 mg daily, N 6",−0.00 ± 0.58
same,"Reactive Hyperemia Index, FU − BL","[1]; 37.5 mg daily, N 6",0.03 ± 0.84
same,"Natural Log of Reactive Hyperemia Index, Baseline measurement",[1]; 37.5 mg daily,0.48 ± 0.31
same,"Natural Log of Reactive Hyperemia Index, Follow-up measurement",[1]; 37.5 mg daily,0.51 ± 0.26
same,"Natural Log of Reactive Hyperemia Index, Difference, FU − BL",[1]; 37.5 mg twice daily,−0.07 ± 0.17
same,"AUC2max_o: Area under the curve to Max-Occlusion (ratio to baseline), FU − BL","[1]; 37.5 mg twice daily, N 6",0.09 ± 1.45
same,"AUC2max_oc: Area under the curve to Max-Occlusion/Control, FU − BL","[1]; 37.5 mg twice daily, N 6",−1.19 ± 1.84
same,"AUCall_o: Area under the curve all-Occlusion (ratio to baseline), FU − BL","[1]; 37.5 mg twice daily, N 6",−0.69 ± 2.17
same,"AUCall_oc: Area under the curve all-Occlusion/Control, FU − BL","[1]; 37.5 mg twice daily, N 6",−1.19 ± 2.00
same,"Avg2Max_o: average upto max-Occlusion (ratio to baseline), FU − BL","[1]; 37.5 mg twice daily, N 6",0.15 ± 0.19
same,"Avg2Max_oc: average up to max-Occlusion/Control, FU − BL","[1]; 37.5 mg twice daily, N 6",−0.33 ± 0.26
same,"Avgall_o: average all-Occlusion (ratio to baseline), FU − BL","[1]; 37.5 mg twice daily, N 6",−0.08 ± 0.24
same,"Avgall_oc: average all -Occlusion/Control, FU − BL","[1]; 37.5 mg twice daily, N 6",−0.13 ± 0.22
same,"Framingham RHI, FU − BL","[1]; 37.5 mg twice daily, N 6",−0.17 ± 0.19
same,"Reactive Hyperemia Index, FU − BL","[1]; 37.5 mg twice daily, N 6",−0.12 ± 0.30
same,"Natural Log of Reactive Hyperemia Index, Baseline measurement",[1]; 37.5 mg twice daily,0.60 ± 0.30
same,"Natural Log of Reactive Hyperemia Index, Follow-up measurement",[1]; 37.5 mg twice daily,0.53 ± 0.29
same,"Natural Log of Reactive Hyperemia Index, Difference, FU − BL",[1]; 87.5 mg daily,0.07 ± 0.22
same,"AUC2max_o: Area under the curve to Max-Occlusion (ratio to baseline), FU − BL","[1]; 87.5 mg daily, N 5",−1.26 ± 4.89
same,"AUC2max_oc: Area under the curve to Max-Occlusion/Control, FU − BL","[1]; 87.5 mg daily, N 5",3.03 ± 2.49
same,"AUCall_o: Area under the curve all-Occlusion (ratio to baseline), FU − BL","[1]; 87.5 mg daily, N 5",1.66 ± 5.96
same,"AUCall_oc: Area under the curve all-Occlusion/Control, FU − BL","[1]; 87.5 mg daily, N 5",1.88 ± 3.25
same,"Avg2Max_o: average upto max-Occlusion (ratio to baseline), FU − BL","[1]; 87.5 mg daily, N 5",0.10 ± 0.69
same,"Avg2Max_oc: average up to max-Occlusion/Control, FU − BL","[1]; 87.5 mg daily, N 5",0.17 ± 0.43
same,"Avgall_o: average all-Occlusion (ratio to baseline), FU − BL","[1]; 87.5 mg daily, N 5",0.14 ± 0.67
same,"Avgall_oc: average all -Occlusion/Control, FU − BL","[1]; 87.5 mg daily, N 5",0.16 ± 0.36
same,"Framingham RHI, FU − BL","[1]; 87.5 mg daily, N 5",0.04 ± 0.36
same,"Reactive Hyperemia Index, FU − BL","[1]; 87.5 mg daily, N 5",0.12 ± 0.34
same,"Natural Log of Reactive Hyperemia Index, Baseline measurement",[1]; 87.5 mg daily,0.41 ± 0.25
same,"Natural Log of Reactive Hyperemia Index, Follow-up measurement",[1]; 87.5 mg daily,0.45 ± 0.31
same,"Natural Log of Reactive Hyperemia Index, Difference, FU − BL",[1]; 87.5 mg twice daily,−0.03 ± 0.20
same,"AUC2max_o: Area under the curve to Max-Occlusion (ratio to baseline), FU − BL","[1]; 87.5 mg twice daily, N 4",−0.51 ± 1.64
same,"AUC2max_oc: Area under the curve to Max-Occlusion/Control, FU − BL","[1]; 87.5 mg twice daily, N 4",0.16 ± 1.08
same,"AUCall_o: Area under the curve all-Occlusion (ratio to baseline), FU − BL","[1]; 87.5 mg twice daily, N 4",0.60 ± 2.95
same,"AUCall_oc: Area under the curve all-Occlusion/Control, FU − BL","[1]; 87.5 mg twice daily, N 4",0.17 ± 4.30
same,"Avg2Max_o: average upto max-Occlusion (ratio to baseline), FU − BL","[1]; 87.5 mg twice daily, N 4",0.03 ± 0.36
same,"Avg2Max_oc: average up to max-Occlusion/Control, FU − BL","[1]; 87.5 mg twice daily, N 4",0.24 ± 0.23
same,"Avgall_o: average all-Occlusion (ratio to baseline), FU − BL","[1]; 87.5 mg twice daily, N 4",0.09 ± 0.33
same,"Avgall_oc: average all -Occlusion/Control, FU − BL","[1]; 87.5 mg twice daily, N 4",0.05 ± 0.45
same,"Framingham RHI, FU − BL","[1]; 87.5 mg twice daily, N 4",0.00 ± 0.20
same,"Reactive Hyperemia Index, FU − BL","[1]; 87.5 mg twice daily, N 4",0.01 ± 0.38
same,"Natural Log of Reactive Hyperemia Index, Baseline measurement",[1]; 87.5 mg twice daily,0.49 ± 0.12
same,"Natural Log of Reactive Hyperemia Index, Follow-up measurement",[1]; 87.5 mg twice daily,0.40 ± 0.29
same,"Natural Log of Reactive Hyperemia Index, Difference, FU − BL",[1]; 125 mg daily,−0.10 ± 0.38
same,"AUC2max_o: Area under the curve to Max-Occlusion (ratio to baseline), FU − BL","[1]; 125 mg daily, N 6",0.37 ± 2.71
same,"AUC2max_oc: Area under the curve to Max-Occlusion/Control, FU − BL","[1]; 125 mg daily, N 6",1.80 ± 1.18
same,"AUCall_o: Area under the curve all-Occlusion (ratio to baseline), FU − BL","[1]; 125 mg daily, N 6",−0.28 ± 3.98
same,"AUCall_oc: Area under the curve all-Occlusion/Control, FU − BL","[1]; 125 mg daily, N 6",−1.84 ± 7.21
same,"Avg2Max_o: average upto max-Occlusion (ratio to baseline), FU − BL","[1]; 125 mg daily, N 6",0.07 ± 0.86
same,"Avg2Max_oc: average up to max-Occlusion/Control, FU − BL","[1]; 125 mg daily, N 6",−0.32 ± 1.28
same,"Avgall_o: average all-Occlusion (ratio to baseline), FU − BL","[1]; 125 mg daily, N 6",−0.03 ± 0.49
same,"Avgall_oc: average all -Occlusion/Control, FU − BL","[1]; 125 mg daily, N 6",−0.20 ± 0.84
same,"Framingham RHI, FU − BL","[1]; 125 mg daily, N 6",−0.13 ± 0.51
same,"Reactive Hyperemia Index, FU − BL","[1]; 125 mg daily, N 6",−0.21 ± 0.78
same,"Natural Log of Reactive Hyperemia Index, Baseline measurement",[1]; 125 mg daily,0.63 ± 0.37
same,"Natural Log of Reactive Hyperemia Index, Follow-up measurement",[1]; 125 mg daily,0.52 ± 0.34
same,"Natural Log of Reactive Hyperemia Index, Difference, FU − BL",[1]; All subjects (treatment arms),−0.02 ± 0.30
same,"Natural Log of Reactive Hyperemia Index, Baseline measurement",[1]; All subjects (treatment arms),0.52 ± 0.28
same,"Natural Log of Reactive Hyperemia Index, Follow-up measurement",[1]; All subjects (treatment arms),0.49 ± 0.28
same,"AUC2max_o: Area under the curve to Max-Occlusion (ratio to baseline), FU − BL","[1]; All subjects, N 27",−0.26 ± 2.75
same,"AUC2max_oc: Area under the curve to Max-Occlusion/Control, FU − BL","[1]; All subjects, N 27",0.51 ± 2.91
same,"AUCall_o: Area under the curve all-Occlusion (ratio to baseline), FU − BL","[1]; All subjects, N 27",0.18 ± 3.54
same,"AUCall_oc: Area under the curve all-Occlusion/Control, FU − BL","[1]; All subjects, N 27",−0.60 ± 4.93
same,"Avg2Max_o: average upto max-Occlusion (ratio to baseline), FU − BL","[1]; All subjects, N 27",0.04 ± 0.51
same,"Avg2Max_oc: average up to max-Occlusion/Control, FU − BL","[1]; All subjects, N 27",−0.16 ± 0.79
same,"Avgall_o: average all-Occlusion (ratio to baseline), FU − BL","[1]; All subjects, N 27",0.02 ± 0.40
same,"Avgall_oc: average all -Occlusion/Control, FU − BL","[1]; All subjects, N 27",−0.06 ± 0.54
same,"Framingham RHI, FU − BL","[1]; All subjects, N 27",−0.06 ± 0.39
same,"Reactive Hyperemia Index, FU − BL","[1]; All subjects, N 27",−0.04 ± 0.56
same,Improvement in natural log of Reactive Hyperemia Index,"[1]; some patients, baseline to day 5",≤ 9.75%
same,T1/2,[2]; in vivo,11 to 13 h
same,Tmax,[2]; in vivo,1.0 to 1.5 h
same,half-life,[2]; in vivo,7.3 to 12.1 h
same,time to steady state,"[2]; multiple dosing, previous studies",5 days
same,erectile function,[3],significantly improved
